From patent US20040109845A1, “Method for inhibiting articular cartilage matrix calcification” (priority 2001, published 2004) come the findings set out here.

In data set [1] the test system is alkaline phosphatase (AP). Put plainly: AP activity of cultured meniscal cells. The data set is classed as cell-based, human. Particulars: 48 h, 10 ng/ml. As to the method: Meniscal cells (from the same donors used in FIG. 3 above) were released from the matrix with collagenase digestion, and grown in monolayer culture for 72 hrs, then trypsinized and plated in 35 mm dishes (containing 3×10^5 cells) and allowed to adhere overnight. Cells were then treated for 48 h with 10 ng/ml of TGFβ or IL-1β (10 ng/ml) in 1% FCS-containing DMEM high glucose medium. The cells were collected and lysed for the TGase (FIG. 5A), NTPPPH (FIG. 5B), and AP (FIG. 5C) assays as described in the Methods. Five micrograms of soluble protein was studied in triplicate for each assay performed as previously described. Results were analyzed by linear regression, with results indicated.
PPi was determined by differential adsorption on activated charcoal of UDP-D-[6-^3H] glucose (Amersham, Chicago, Ill.) from the reaction product 6-phospho [6-^3H] gluconate (28). Units of NTPPPH and AP were designated as micromoles of substrate hydrolyzed per hour (per μg DNA in each sample) (28). NO release by cultured meniscal cells was measured using the Greiss reaction (33). Concentrations or specific activities of PPi, NTPPPH, and AP were equalized for cellular DNA concentrations in each well.

Data set [2] relates to TGase activity in knee meniscal cells and TC28 cells. Put plainly: TGase activity in nonadherent nodule-forming culture on polyHEME. To be noted: polyHEME plates, β-glycerophosphate, ascorbate, dexamethasone, up to 10 days; cytokines 10 ng/ml or TGase transfection. Type of data set: cell-based, human. As to the method: FIG. 10 refers to effects of direct Factor XIIIa and tTGase expression on TGase activity in meniscal cells and TC28 cells. Human chondrocytic TC28 cells or normal knee meniscal cells (5×10^5), were plated in 60 mm dishes and allowed to adhere overnight, as described in the Methods. Two μg of plasmid DNAs or empty plasmid vector were then transfected, performed as described above. After 24 hrs, the cells were removed from the dishes and plated on polyHEME-coated tissue culture plates and media supplemented with 10 mM P-glycerophosphate, ascorbatte (50 μg/ml) and dexamethasone (10^−8 M), which stimulated the cells to form mineralizing nodules for 3-10 days in culture. For comparison purposes, cells were treated only with IL-1 or TGFβ (10 ng/ml each) for up to 10 days. At each time point designated, the cell nodules were collected and lysed, and TGase activity then determined as previously described. For meniscal cells, data pooled from 6 donors studied in triplicate. For TC28 cells, n=6 each, studied in triplicate. Statistics not indicated on this graph, but p<0.05 for the increases in TGase activities in response to both Factor XIIIa and tTGase transfection, and for IL-1 treatment, at all time points.
TGase activity was measured by modifications to a previously described method (35). Specifically, we coated 96 well ImmunoModule plates (Nunc, Rochester, N.Y.) with 200 μl of 20 mg/ml N,N-dimethylcasein for 1 hr at 23° C. The N,N-dimethylcasein was removed and nonspecific protein binding was blocked by adding 3% BSA in 100 mM Tris, pH 8.5, 150 mM NaCl, 0.05% Tween-20 (TBST) to each well for an additional 1 hr at 23° C. Then, aliquots of 5 μg of total cellular protein from meniscal or TC28 cells that had been lysed and sonicated (in 5 mM Tris HCl, 0.25 M sucrose, 0.2 mM MgSO4, 2 mM DTT, 0.4 mM PMSF, 0.4% Triton X100, pH 7.5), were added to the plate in triplicate. To measure TGase in extracts of whole menisci, 50 mg dry weight of tissue from the central zone of each medial meniscus was used as the source (after solubilization and sonication) for aliquots of 5 μg of soluble protein. Fifty μl of solution A (100 mM Tris, pH 8.5 and 20 mM CaCl2) was added to all samples for TGase assay, followed by the addition of 50 μl of solution B (100 mM Tris, pH 8.5, 40 mM DTT and freshly added 2 mM 5-(Biotinamido) pentylamine (BP)). The plates were incubated for 1 hr at 37° C. The wells were washed once with TBST containing 1 mM EDTA and then three times with TBST. […] Readings at OD410 were taken over 15 minutes. […] TGase activity was designated as the amount of BP incorporated into casein (per μg cellular DNA, determined chromogenically following precipitation in perchlorate (28), or, where indicated, per μg protein, determined as previously described (28)). […]

The test system of data set [3] is S100A11 mRNA in human articular chondrocytes. The data set can be described thus: S100A11 mRNA expression by RT-PCR. Type of data set: cell-based. To be noted: 10 ng/ml, 24 hours, relative to L30. As to the method: Normal human knee articular chondrocytes were treated in culture with IL-1 or IGF-I (10 ng/ml) for 24 hours and ascertained for S100A11 mRNA expression by RT-PCR, relative to the loading control L30, a ribosomal housekeeping gene. Results for induction of S100 A11 representative of 3 separate experiments with different donors.

Turning to “IL-1β: Human recombinant IL-1β purchased from R&D Systems”, in data set [1], the AP activity result was “did not significantly change”. The “TGase activity under mineralizing nonadherent conditions” value in data set [2] was “induced significant increases in TGase activity”. Besides, the “S100A11 mRNA expression” value in data set [3] is “induce mRNA expression of S100A11”.
